Reference: PMC12783734, “Carboxymethylcytosine is a natural base modification and a handle for bacteriophage DNA hypermodification” (Nature Communications, 2025)

Target: T1, EcCmoA (Escherichia coli, UniProt P76290)
T1 construct: gene cmoA; E. coli BL21(DE3)
Assay: HPLC / LC-MS of Cx-SAM formation
Type: biochemical
Conditions: co-substrate prephenate; sodium phosphate pH 6.8; 37 C

T1 sequence (P76290 whole entry): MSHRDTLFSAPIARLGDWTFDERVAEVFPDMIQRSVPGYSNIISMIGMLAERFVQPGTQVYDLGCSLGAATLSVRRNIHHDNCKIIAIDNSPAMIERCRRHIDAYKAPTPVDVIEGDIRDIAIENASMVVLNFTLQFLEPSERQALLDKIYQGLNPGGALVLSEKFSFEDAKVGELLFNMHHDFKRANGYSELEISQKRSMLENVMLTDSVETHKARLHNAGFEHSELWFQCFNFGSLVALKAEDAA

C[S+](CC[C@H](N)C(=O)O)C[C@H]1O[C@@H](n2cnc3c(N)ncnc32)[C@H](O)[C@@H]1O (stereo partly shown) [SAM]
HPLC / LC-MS of Cx-SAM formation: Incubation with either SpCmoA or EcCmoA led to a decrease in the SAM peak
